{
  "source": "patent US7009036B2",
  "about": "“Peptide inhibiting platelet derived growth factor (PDGF-BB) and fibroblast growth factor (bFGF) activity” (Provincia Italiana Della Congregazione Dei Figli …, priority 2001, dated 2006)",
  "key": {"[1]": {"test_system": "primary rat aorta smooth muscle cells (RASMC)", "assay": "Proliferation assay, RASMC", "type": "cell-based", "settings": "0.1% BSA alone, no growth factor; any time", "experimental": "(§1) This test was carried out on Primary rat aorta smooth muscle cells (RASMC) obtained from six-month old male Wistar rats following a well known technique (Sterpetti, A. V. et al., 1992, J. Vasc. Surg., 6, 16–20); primary bovine aortic endothelial cells (BAEC) were obtained according to previously described protocols (D'Arcangelo, D. et al., 2000, Circ.Res., 86, 312–318).\n(§2) Proliferation assay was carried out on primary rat aorta SMC and on primary bovine aortic endothelial cells (BAEC). Cells were plated in six-well plates (1×10^5 cells/plate) and grown for 24 hours in Dulbecco Modified eagle's medium (DMEM) supplemented with 10% FBS, at 37° C. in 5% CO2. Then, the medium was replaced with DMEM medium containing 0.1% BSA for 24 hours. Subsequently, the medium was replaced with fresh medium containing either 0.1% BSA alone or 0.1% BSA with growth factors at 10 ng/ml final concentration or fetal calf serum (FCS) al 10%, in the absence or in the presence of PEP1 or control peptide. Each assay was carried out for mounting period of time up to a maximum time of three days and the cell were harvested and counted with hemacytometer."}, "[2]": {"test_system": "primary bovine aortic endothelial cells (BAEC)", "assay": "Proliferation assay, BAEC", "type": "cell-based", "settings": "0.1% BSA alone, no growth factor; any time", "experimental": "as §1, §2"}},
  "note": "Ends that are not written are not given here.",
  "data": [
    {"sequence": "DPHIKLQLQAE [PEP1, Asp-Pro-His-Ile-Lys-Leu-Gln-Leu-Gln-Ala-Glu]", "values": [
      {"measurement": "effect on spontaneous proliferation (toxicity per se), RASMC", "setting": "[1]", "result": "not significantly affected"},
      {"measurement": "effect on spontaneous proliferation (toxicity per se), BAEC", "setting": "[2]", "result": "not significantly affected"}
    ]}
  ]
}
